For orientation: Ki means the dissociation constant of the complex between target and ligand, obtained from inhibition or displacement. The low end stands for a stronger hold on the target, the high end for a looser hold on the target.

Assay [1] addresses T1, Adenosine receptor A2b (Homo sapiens, UniProt P29275).
T1 sequence (P29275 whole entry): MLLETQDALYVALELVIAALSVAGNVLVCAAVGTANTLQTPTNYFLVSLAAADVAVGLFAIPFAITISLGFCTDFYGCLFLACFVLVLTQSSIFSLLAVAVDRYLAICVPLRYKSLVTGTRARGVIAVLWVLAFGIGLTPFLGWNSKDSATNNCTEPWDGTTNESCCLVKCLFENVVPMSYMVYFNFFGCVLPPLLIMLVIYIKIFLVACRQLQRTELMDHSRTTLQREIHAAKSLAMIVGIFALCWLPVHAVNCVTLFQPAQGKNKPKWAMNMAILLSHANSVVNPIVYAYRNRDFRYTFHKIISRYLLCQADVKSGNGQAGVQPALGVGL

The next assay concerns the target T2, Adenosine receptor A1 (Homo sapiens, UniProt P30542).
T2 sequence (P30542 whole entry): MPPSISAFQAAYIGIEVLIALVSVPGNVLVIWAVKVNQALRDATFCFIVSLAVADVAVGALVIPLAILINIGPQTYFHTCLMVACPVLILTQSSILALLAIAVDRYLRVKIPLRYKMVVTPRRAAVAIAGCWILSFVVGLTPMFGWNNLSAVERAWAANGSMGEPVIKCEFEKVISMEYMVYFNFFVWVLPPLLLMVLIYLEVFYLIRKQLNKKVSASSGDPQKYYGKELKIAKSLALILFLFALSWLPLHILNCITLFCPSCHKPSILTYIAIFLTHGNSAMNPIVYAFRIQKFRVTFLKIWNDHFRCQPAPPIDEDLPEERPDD
Nature of the assay: biochemical.

Assay [2] concerns the target T3, Adenosine receptor A2a (Homo sapiens, UniProt P29274). The assay can be described thus: biochemical.
Description: Binding affinity for adenosine A2a receptor by using as [3H]ZM-241385 (2 nM) radioligand in membranes from HEK-A2A cells
Assay [3] addresses T1, Adenosine receptor A2b. Nature of the assay: Binding affinity for adenosine A2b receptor by using as [3H]ZM-241385 radioligand in membranes from HEK-A2B cells.
Assay [4] has as its target T3, Adenosine receptor A2a. The assay can be described thus: biochemical. The source holds these as a separate data set.
Description: Binding affinity against Adenosine A2a receptor labeled by [3H]ZM-241385 in membranes prepared from HEK-A2A cells
The target in assay [5] is T1, Adenosine receptor A2b. Nature of the assay: Binding affinity against Adenosine A2b receptor labeled by [3H]ZM-241385 in membranes prepared from HEK-A2B cells.

T3 sequence (P29274 whole entry): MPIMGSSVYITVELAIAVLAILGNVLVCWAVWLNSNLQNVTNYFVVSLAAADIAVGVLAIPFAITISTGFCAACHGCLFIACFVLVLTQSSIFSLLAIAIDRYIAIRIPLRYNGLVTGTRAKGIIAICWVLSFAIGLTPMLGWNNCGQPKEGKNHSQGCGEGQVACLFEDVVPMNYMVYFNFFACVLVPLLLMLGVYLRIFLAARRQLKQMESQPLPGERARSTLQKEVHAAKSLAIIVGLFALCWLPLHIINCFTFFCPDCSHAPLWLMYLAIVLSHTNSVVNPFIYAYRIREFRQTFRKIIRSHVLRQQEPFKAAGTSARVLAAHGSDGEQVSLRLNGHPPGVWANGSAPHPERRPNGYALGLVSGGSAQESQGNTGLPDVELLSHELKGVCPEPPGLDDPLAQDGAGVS

For the compound `CCCn1c(=O)c2nc(-c3ccc(OCc4nc(-c5cccc(C)c5)no4)cc3)[nH]c2n(CCC)c1=O`, the Ki on Adenosine receptor A2b [1] was greater than 6670 nM; on Adenosine receptor A1, greater than 6000 nM; on Adenosine receptor A2a [2] it was greater than 5000 nM.

For the compound `CCCn1c(=O)c2[nH]c(-c3ccc(OCc4nc(-c5ccc(F)cc5)no4)cc3)nc2n(CCC)c1=O`, the Ki was 215 nM at Adenosine receptor A2b [1], 1830 nM on Adenosine receptor A1, 215 nM on Adenosine receptor A2b [3] and greater than 5000 nM at Adenosine receptor A2a [2].

`CCCn1c(=O)c2nc(-c3ccc(OCc4nc(-c5cccc(F)c5)no4)cc3)[nH]c2n(CCC)c1=O`: the Ki on Adenosine receptor A2b [1] was 1450 nM; at Adenosine receptor A1 it was 2010 nM; on Adenosine receptor A2a [2], greater than 5000 nM.

In the case of `CCCn1c(=O)c2nc(-c3ccc(OCc4nc(-c5ccccc5C)no4)cc3)[nH]c2n(CCC)c1=O`, the values for the Ki on Adenosine receptor A2b [1], on Adenosine receptor A1 and at Adenosine receptor A2a [2] were 1120 nM, greater than 6000 nM and greater than 5000 nM, respectively.

Regarding `CCCn1c(=O)c2nc(-c3ccc(OCc4nc(-c5ccccc5Cl)no4)cc3)[nH]c2n(CCC)c1=O`, the Ki at Adenosine receptor A2b [1] is 1830 nM; on Adenosine receptor A1 it was greater than 6000 nM; at Adenosine receptor A2a [2] it was greater than 5000 nM.

As for `CCCn1c(=O)c2[nH]c(-c3ccc(OCc4noc(-c5ccc(OC)cc5)n4)cc3)nc2n(CCC)c1=O`, the Ki at Adenosine receptor A2b [1] came to 250 nM; on Adenosine receptor A1 it was 2190 nM.

As for `CCCn1c(=O)c2nc(-c3ccc(OCc4noc(-c5ccc(C(F)(F)F)cc5)n4)cc3)[nH]c2n(CCC)c1=O`, the results for the Ki on Adenosine receptor A2b [1], at Adenosine receptor A1 and at Adenosine receptor A2a [2] were 255 nM, 5180 nM and 4910 nM, respectively.

With `CCCn1c(=O)c2[nH]c(-c3ccc(OCc4noc(-c5ccccc5OC)n4)cc3)nc2n(CCC)c1=O`, the Ki at Adenosine receptor A2b [1] was found to be 127 nM; on Adenosine receptor A1, 1160 nM; at Adenosine receptor A2a [4] it was 23 nM; at Adenosine receptor A2b [5], 127 nM; at Adenosine receptor A2a [2], 2940 nM.

Turning to `CCCn1c(=O)c2nc(-c3ccc(OCc4nc(-c5ccccc5C(F)(F)F)no4)cc3)[nH]c2n(CCC)c1=O`, the Ki at Adenosine receptor A2b [1] was determined as 325 nM; at Adenosine receptor A1, 473 nM; at Adenosine receptor A2a [2], 3140 nM.

On to `CCCn1c(=O)c2nc(-c3ccc(OCc4nc(-c5ccccc5F)no4)cc3)[nH]c2n(CCC)c1=O`, for which the values for the Ki at Adenosine receptor A2b [1], at Adenosine receptor A1 and on Adenosine receptor A2a [2] were greater than 2000 nM, greater than 6000 nM and greater than 5000 nM, respectively.

Take `CCCn1c(=O)c2nc(-c3ccc(OCc4noc(-c5cccc(C(F)(F)F)c5)n4)cc3)[nH]c2n(CCC)c1=O`: the Ki at Adenosine receptor A2b [1] is 1010 nM; at Adenosine receptor A1, greater than 6000 nM; on Adenosine receptor A2a [2], greater than 5000 nM.

On to `CCCn1c(=O)c2[nH]c(-c3ccc(OCc4nc(-c5ccc(Cl)cc5)no4)cc3)nc2n(CCC)c1=O`, for which the Ki on Adenosine receptor A2b [1] worked out at 5170 nM.

On to `CCCn1c(=O)c2[nH]c(-c3ccc(OCc4noc(-c5ccc(C#N)cc5)n4)cc3)nc2n(CCC)c1=O`, for which the Ki on Adenosine receptor A2b [1] was 207 nM; on Adenosine receptor A1, 288 nM; at Adenosine receptor A2a [2], greater than 5000 nM.

In the case of `CCCn1c(=O)c2[nH]c(-c3ccc(OCc4noc(-c5cccc(F)c5)n4)cc3)nc2n(CCC)c1=O`, the Ki is greater than 2000 nM on Adenosine receptor A2b [1], greater than 6000 nM at Adenosine receptor A1 and greater than 5000 nM at Adenosine receptor A2a [2].

Turning to `CCCn1c(=O)c2nc(-c3ccc(OCc4nc(-c5cccc(Cl)c5)no4)cc3)[nH]c2n(CCC)c1=O`, the results for the Ki at Adenosine receptor A2b [1], at Adenosine receptor A1 and at Adenosine receptor A2a [2] were 42 nM, 6.4 nM and 407 nM, respectively.

Take `CCCn1c(=O)c2nc(-c3ccc(OCc4nc(-c5ccc(C)cc5)no4)cc3)[nH]c2n(CCC)c1=O`: the results for the inhibition constant Ki at Adenosine receptor A2b [1], on Adenosine receptor A1 and at Adenosine receptor A2a [2] were 526 nM, 643 nM and greater than 5000 nM, respectively.

Consider `CCCn1c(=O)c2nc(-c3ccc(OCc4noc(-c5ccccc5F)n4)cc3)[nH]c2n(CCC)c1=O`, for which the affinity at Adenosine receptor A2b [1] corresponds to a Ki of 645 nM.

As to `CCCn1c(=O)c2[nH]c(-c3ccc(OCc4nc(-c5ccc(C(F)(F)F)cc5)no4)cc3)nc2n(CCC)c1=O`, the Ki was 485 nM on Adenosine receptor A2b [1], 1170 nM at Adenosine receptor A1 and greater than 5000 nM on Adenosine receptor A2a [2].

`CCCn1c(=O)c2[nH]c(-c3ccc(OCc4nc(-c5cccc(C(F)(F)F)c5)no4)cc3)nc2n(CCC)c1=O`: the Ki was 945 nM at Adenosine receptor A2b [1], greater than 6000 nM on Adenosine receptor A1 and greater than 5000 nM on Adenosine receptor A2a [2].

Consider `CCCn1c(=O)c2nc(-c3ccc(OCc4noc(-c5ccccc5C)n4)cc3)[nH]c2n(CCC)c1=O`, for which the Ki at Adenosine receptor A2b [1] was 438 nM; on Adenosine receptor A1 it was greater than 10000 nM; on Adenosine receptor A2a [2], greater than 15000 nM.

In the case of `CCCn1c(=O)c2[nH]c(-c3ccc(OCc4noc(-c5cccc(C)c5)n4)cc3)nc2n(CCC)c1=O`, the affinity at Adenosine receptor A2b [1] corresponds to a Ki of 700 nM.

Regarding `CCCn1c(=O)c2nc(-c3ccc(OCc4noc(-c5cccc(Cl)c5)n4)cc3)[nH]c2n(CCC)c1=O`, the inhibition constant Ki at Adenosine receptor A2b [1] was 2080 nM; at Adenosine receptor A1, greater than 6000 nM; on Adenosine receptor A2a [2], greater than 5000 nM.

In the case of `CCCn1c(=O)c2nc(-c3ccc(OCc4nc(-c5ccc(C#N)cc5)no4)cc3)[nH]c2n(CCC)c1=O`, the Ki at Adenosine receptor A2b [1] is 4520 nM; at Adenosine receptor A1 it was greater than 6000 nM; on Adenosine receptor A2a [2] it was greater than 5000 nM.

With `CCCn1c(=O)c2[nH]c(-c3ccc(OCc4nc(-c5ccccc5OC)no4)cc3)nc2n(CCC)c1=O`, the Ki at Adenosine receptor A2b [1] was 557 nM; on Adenosine receptor A1 it was greater than 6000 nM; on Adenosine receptor A2a [2], greater than 5000 nM.

Consider `CCCn1c(=O)c2[nH]c(-c3ccc(OCc4noc(-c5ccc(F)cc5)n4)cc3)nc2n(CCC)c1=O`, for which the values for the Ki on Adenosine receptor A2b [1], on Adenosine receptor A1 and on Adenosine receptor A2a [2] were 220 nM, greater than 6000 nM and greater than 5000 nM, respectively.

As to `CCCn1c(=O)c2nc(-c3ccc(OCc4nc(-c5ccc(OC)cc5)no4)cc3)[nH]c2n(CCC)c1=O`, the Ki at Adenosine receptor A2b [1] was 2780 nM; on Adenosine receptor A1, greater than 6000 nM; on Adenosine receptor A2a [2], greater than 5000 nM.

With `CCCn1c(=O)c2[nH]c(-c3ccc(OCc4noc(-c5ccccc5Cl)n4)cc3)nc2n(CCC)c1=O`, the Ki on Adenosine receptor A2b [1] came out at 5830 nM.

The compound `CCCn1c(=O)c2nc(-c3ccc(OCc4noc(-c5ccc(Cl)cc5)n4)cc3)[nH]c2n(CCC)c1=O` came in with a Ki on Adenosine receptor A2b [1] of 3660 nM.

Turning to `CCCn1c(=O)c2nc(-c3ccc(OCc4noc(-c5ccc(C)cc5)n4)cc3)[nH]c2n(CCC)c1=O`, the Ki came to 91 nM at Adenosine receptor A2b [1], 113 nM at Adenosine receptor A1 and 1010 nM on Adenosine receptor A2a [2].

In the case of `CCCn1c(=O)c2nc(-c3ccc(OCc4nc(-c5cccc(OC)c5)no4)cc3)[nH]c2n(CCC)c1=O`, the Ki is 1680 nM at Adenosine receptor A2b [1], greater than 6000 nM at Adenosine receptor A1 and greater than 5000 nM at Adenosine receptor A2a [2].
